# Columns and labels:
# Assay in all cases: cells
# COLO-824 = assay type: functional, cell-based, Homo sapiens; details: Homo sapiens, COLO-824
# Description: SANGER: Inhibition of human COLO-824 cell growth in a cell viability assay.
# DMS-79 = assay type: functional, cell-based; details: Homo sapiens;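 also: growth inhibition measured with a cell viability assay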
# Description: SANGER: Inhibition of human DMS-79 cell growth in a cell viability assay.
# EKVX = assay type: functional, cell-based, Homo sapiens; details: Homo sapiens, EKVX;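 also: growth inhibition of human EKVX cells, read out with a cell viability assay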
# Description: SANGER: Inhibition of human EKVX cell growth in a cell viability assay.
# ETK-1 = assay type: functional, cell-based, Homo sapiens; details: Homo sapiens, ETK-1;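 also: growth inhibition of human ETK-1 cells, read out with a cell viability assay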
# Description: SANGER: Inhibition of human ETK-1 cell growth in a cell viability assay.
# EW-18 = assay type: functional, cell-based; details: Homo sapiens;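 also: growth inhibition of EW-18 cells, read out by a cell viability assay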
# Description: SANGER: Inhibition of human EW-18 cell growth in a cell viability assay.
# GI-1 = assay type: functional, cell-based, Homo sapiens; details: Homo sapiens, GI-1;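 also: growth inhibition of human GI-1 cells, measured with a cell viability readout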
# Description: SANGER: Inhibition of human GI-1 cell growth in a cell viability assay.
# HCC1187 = assay type: functional, cell-based, Homo sapiens; details: Homo sapiens, HCC1187;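 also: growth inhibition of HCC1187 cells, read out with a cell viability assay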
# Description: SANGER: Inhibition of human HCC1187 cell growth in a cell viability assay.
# K5 = assay type: functional, cell-based, Homo sapiens; details: Homo sapiens, K5
# Description: SANGER: Inhibition of human K5 cell growth in a cell viability assay.
# KARPAS-45 = assay type: functional, cell-based; details: Homo sapiens;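 also: inhibition of cell line growth, read out through a viability assay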
# Description: SANGER: Inhibition of human KARPAS-45 cell growth in a cell viability assay.
# KU812 cell line = assay type: functional, cell-based; details: Homo sapiens;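 also: growth inhibition of KU812 cells, read out with a cell viability assay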
# Description: SANGER: Inhibition of human KU812 cell growth in a cell viability assay.
# LS-1034 = assay type: functional, cell-based, Homo sapiens; details: Homo sapiens, LS-1034
# Description: SANGER: Inhibition of human LS-1034 cell growth in a cell viability assay.
# NB13 = assay type: functional, cell-based, Homo sapiens; details: Homo sapiens, NB13;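 also: cell viability readout measuring growth inhibition of human NB13 cells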
# Description: SANGER: Inhibition of human NB13 cell growth in a cell viability assay.
# NB14 = assay type: functional, cell-based; details: Homo sapiens;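 also: growth inhibition of NB14 cells measured with a cell viability assay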
# Description: SANGER: Inhibition of human NB14 cell growth in a cell viability assay.
# NB69 = assay type: functional, cell-based, Homo sapiens; details: Homo sapiens, NB69;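 also: growth inhibition of NB69 cells, determined by a cell viability assay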
# Description: SANGER: Inhibition of human NB69 cell growth in a cell viability assay.
# NCI-H1304 = assay type: functional, cell-based; details: Homo sapiens;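 also: growth inhibition of the cancer cell line, measured in a cell viability assay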
# Description: SANGER: Inhibition of human NCI-H1304 cell growth in a cell viability assay.
# NCI-H1355 = assay type: functional, cell-based, Homo sapiens; details: Homo sapiens, NCI-H1355;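 also: growth inhibition of human NCI-H1355 cells, read out by a cell viability assay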
# Description: SANGER: Inhibition of human NCI-H1355 cell growth in a cell viability assay.
# OCI-AML2 = assay type: functional, cell-based; details: Homo sapiens;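 also: growth inhibition of OCI-AML2 cells, read out with a cell viability assay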
# Description: SANGER: Inhibition of human OCI-AML2 cell growth in a cell viability assay.
# OMC-1 = assay type: functional, cell-based, Homo sapiens; details: Homo sapiens, OMC-1;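 also: growth inhibition of the OMC-1 cell line, measured by a cell viability assay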
# Description: SANGER: Inhibition of human OMC-1 cell growth in a cell viability assay.
# SCC-15 = assay type: functional, cell-based, Homo sapiens; details: Homo sapiens, SCC-15;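 also: growth inhibition of SCC-15 cells, read out with a cell viability assay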
# Description: SANGER: Inhibition of human SCC-15 cell growth in a cell viability assay.
# SK-PN-DW = assay type: functional, cell-based; details: Homo sapiens;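 also: growth inhibition measured with a viability assay on these cells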
# Description: SANGER: Inhibition of human SK-PN-DW cell growth in a cell viability assay.
# SK-UT-1 = assay type: functional, cell-based, Homo sapiens; details: Homo sapiens, SK-UT-1;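 also: growth inhibition of SK-UT-1 cells, measured by a cell viability assay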
# Description: SANGER: Inhibition of human SK-UT-1 cell growth in a cell viability assay.
# ALL-PO = assay type: functional, cell-based; details: Homo sapiens;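 also: growth inhibition of ALL-PO cells, read out by a cell viability assay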
# Description: SANGER: Inhibition of human ALL-PO cell growth in a cell viability assay.
# ATN-1 = assay type: functional, cell-based; details: Homo sapiens;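 also: growth inhibition of human ATN-1 cells, read out with a cell viability assay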
# Description: SANGER: Inhibition of human ATN-1 cell growth in a cell viability assay.
# BB30-HNC = assay type: functional, cell-based, Homo sapiens; details: Homo sapiens, BB30-HNC;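 also: growth inhibition of the cultured cell line, read out by a cell viability assay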
# Description: SANGER: Inhibition of human BB30-HNC cell growth in a cell viability assay.
# TE-8 = assay type: functional, cell-based, Homo sapiens; details: Homo sapiens, TE-8;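 also: growth inhibition of TE-8 cells, measured with a cell viability readout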
# Description: SANGER: Inhibition of human TE-8 cell growth in a cell viability assay.
# TK-10 = assay type: functional, cell-based, Homo sapiens; details: Homo sapiens, TK-10;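 also: growth inhibition of TK-10 cells, read out in a cell viability assay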
# Description: SANGER: Inhibition of human TK10 cell growth in a cell viability assay.
# CCRF-CEM = assay type: functional, cell-based; details: Homo sapiens;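 also: inhibition of CCRF-CEM cell growth, measured by a cell viability assay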
# Description: SANGER: Inhibition of human CCRF-CEM cell growth in a cell viability assay.
# COLO-320-HSR = assay type: functional, cell-based; details: Homo sapiens;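 also: growth inhibition of COLO-320-HSR cells, determined with a cell viability assay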
# Description: SANGER: Inhibition of human COLO-320-HSR cell growth in a cell viability assay.
# COLO-668 = assay type: functional, cell-based, Homo sapiens; details: Homo sapiens, COLO-668
# Description: SANGER: Inhibition of human COLO-668 cell growth in a cell viability assay.
# COLO-684 = assay type: functional, cell-based; details: Homo sapiens
# Description: SANGER: Inhibition of human COLO-684 cell growth in a cell viability assay.
SMILES,IC50 (COLO-824),IC50 (DMS-79),IC50 (EKVX),IC50 (ETK-1),IC50 (EW-18),IC50 (GI-1),IC50 (HCC1187),IC50 (K5),IC50 (KARPAS-45),IC50 (KU812 cell line),IC50 (LS-1034),IC50 (NB13),IC50 (NB14),IC50 (NB69),IC50 (NCI-H1304),IC50 (NCI-H1355),IC50 (OCI-AML2),IC50 (OMC-1),IC50 (SCC-15),IC50 (SK-PN-DW),further results
O=C(/C=C/c1ccccc1)NC(NC(=S)Nc1cccc2cccnc12)C(Cl)(Cl)Cl (stereo not given) [SALUBRINAL],> 16000 nM,> 16000 nM,> 16000 nM,> 16000 nM,> 16000 nM,> 16000 nM,> 16000 nM,> 16000 nM,> 16000 nM,> 16000 nM,> 16000 nM,> 16000 nM,> 16000 nM,> 16000 nM,> 16000 nM,> 16000 nM,15900 nM,> 16000 nM,> 16000 nM,> 16000 nM,IC50 (SK-UT-1): > 16000 nM; IC50 (ALL-PO): 4090 nM; IC50 (ATN-1): 12000 nM; IC50 (BB30-HNC): > 16000 nM; IC50 (TE-8): > 16000 nM; IC50 (TK-10): > 16000 nM; IC50 (CCRF-CEM): > 16000 nM; IC50 (COLO-320-HSR): > 16000 nM; IC50 (COLO-668): > 16000 nM; IC50 (COLO-684): > 16000 nM
CO[C@H]1C[C@@H]2CC[C@@H](C)[C@@](O)(O2)C(=O)C(=O)N2CCCC[C@H]2C(=O)O[C@H]([C@H](C)C[C@@H]2CC[C@@H](O)[C@H](OC)C2)CC(=O)[C@H](C)/C=C(\C)[C@@H](O)[C@@H](OC)C(=O)[C@H](C)C[C@H](C)/C=C/C=C/C=C/1C [SIROLIMUS],> 100 nM,> 100 nM,> 100 nM,2.82 nM,> 100 nM,70.4 nM,> 100 nM,> 100 nM,> 100 nM,2.01 nM,> 100 nM,4.36 nM,> 100 nM,> 100 nM,57.2 nM,1.01 nM,> 100 nM,> 100 nM,> 100 nM,20.2 nM,IC50 (SK-UT-1): 16.8 nM; IC50 (ALL-PO): > 100 nM; IC50 (ATN-1): > 100 nM; IC50 (BB30-HNC): > 100 nM; IC50 (TE-8): > 100 nM; IC50 (TK-10): > 100 nM; IC50 (CCRF-CEM): 4.94 nM; IC50 (COLO-320-HSR): > 100 nM; IC50 (COLO-668): > 100 nM; IC50 (COLO-684): 39.8 nM
CCC(=O)N1CCN(c2ccc(-n3c(=O)ccc4cnc5ccc(-c6cnc7ccccc7c6)cc5c43)cc2C(F)(F)F)CC1 [TORIN1],878 nM,> 1200 nM,445 nM,< 4.69 nM,> 1200 nM,24.7 nM,468 nM,64 nM,782 nM,13 nM,364 nM,47.8 nM,> 1200 nM,322 nM,> 1200 nM,16.5 nM,28.7 nM,78 nM,> 1200 nM,49.5 nM,IC50 (SK-UT-1): 22.6 nM; IC50 (ALL-PO): 49.6 nM; IC50 (ATN-1): 27.9 nM; IC50 (BB30-HNC): 57.3 nM; IC50 (TE-8): 90.2 nM; IC50 (TK-10): 40.2 nM; IC50 (CCRF-CEM): 33.7 nM; IC50 (COLO-320-HSR): 131 nM; IC50 (COLO-668): 294 nM; IC50 (COLO-684): 45.6 nM
Cc1cc(Nc2cc(N3CCN(C)CC3)nc(Sc3ccc(NC(=O)C4CC4)cc3)n2)n[nH]1 [TOZASERTIB],> 2000 nM,> 2000 nM,> 2000 nM,1140 nM,> 2000 nM,> 2000 nM,1010 nM,> 2000 nM,> 2000 nM,> 2000 nM,> 2000 nM,280 nM,> 2000 nM,> 2000 nM,1830 nM,> 2000 nM,644 nM,> 2000 nM,> 2000 nM,791 nM,IC50 (SK-UT-1): 160 nM; IC50 (ALL-PO): 882 nM; IC50 (ATN-1): > 2000 nM; IC50 (BB30-HNC): 226 nM; IC50 (TE-8): 1800 nM; IC50 (TK-10): > 2000 nM; IC50 (CCRF-CEM): 653 nM; IC50 (COLO-320-HSR): > 2000 nM; IC50 (COLO-668): > 2000 nM; IC50 (COLO-684): > 2000 nM
